The text below walks through data of ChEMBL document CHEMBL5550116, “Discovery of novel macrocyclic derivatives as potent and selective cyclin-dependent kinase 2 inhibitors” (Bioorg Med Chem, 2024).

Activity calls are given as the source filed them. No cut-off for these calls is given here.

Data set [1] concerns the target Cyclin-dependent kinase 2/cyclin E1 (Homo sapiens, UniProt P24941). In words: Inhibition of full length N-terminal GST-tagged human CDK2 (1 to 298 residues)/cyclin E1 (1 to 410 residues) expressed in Sf21 cells using histone H1 as substrate preincubated for 10 mins followed by substrate and ATP addition and measured after 60 mins by ADP-Glo reagent based microplate reader assay. A general note: ADP-Glo turns the ADP formed in a reaction into a luminescent signal.

The target in data set [2] is Cyclin-dependent kinase 5/CDK5 activator 1 (Homo sapiens, UniProt Q00535). In words: Inhibition of human CDK5/p25NCK using histone H1 as substrate preincubated for 10 mins followed by substrate and ATP addition and measured after 60 mins by ADP-Glo reagent based microplate reader assay. The format is protein-complex assay.
Cyclin-dependent kinase 5/CDK5 activator 1, sequence (Q00535 whole entry): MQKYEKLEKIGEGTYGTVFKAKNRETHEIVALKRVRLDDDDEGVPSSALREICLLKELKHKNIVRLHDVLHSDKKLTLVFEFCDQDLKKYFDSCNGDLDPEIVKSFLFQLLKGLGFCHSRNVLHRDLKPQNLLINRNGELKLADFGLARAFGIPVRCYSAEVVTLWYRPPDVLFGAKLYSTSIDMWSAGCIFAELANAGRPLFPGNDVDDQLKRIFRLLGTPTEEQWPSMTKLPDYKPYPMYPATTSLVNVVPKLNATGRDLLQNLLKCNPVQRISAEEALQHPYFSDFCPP
Cyclin-dependent kinase 5/CDK5 activator 1, sequence (Q15078 whole entry, further chain): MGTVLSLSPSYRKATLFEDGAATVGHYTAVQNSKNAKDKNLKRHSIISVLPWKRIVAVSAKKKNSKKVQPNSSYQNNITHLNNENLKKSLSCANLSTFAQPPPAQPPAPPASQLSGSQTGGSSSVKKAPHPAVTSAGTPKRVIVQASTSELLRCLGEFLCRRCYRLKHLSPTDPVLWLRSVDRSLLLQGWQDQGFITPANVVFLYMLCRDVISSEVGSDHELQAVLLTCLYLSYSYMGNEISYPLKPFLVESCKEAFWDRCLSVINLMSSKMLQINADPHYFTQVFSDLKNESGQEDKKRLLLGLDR
Data set [3] is described as follows: Metabolic stability in mouse liver microsomes assessed as half life at 1 uM preincubated with compound for 10 mins followed by beta-NADPH addition measured upto 60 mins by LC-MS/MS analysis. Format: ADME, Microsome. The conditions noted are these: time < 70 min. (In general: Liver microsomes are vesicles of endoplasmic reticulum, rich in cytochrome P450 enzymes.)

In another data set the target is CDK7/Cyclin H/MNAT1 (Homo sapiens, UniProt P50613). In words: Inhibition of recombinant human His-tagged CDK7/cyclin H/MNAT1 expressed in baculovirus expression system using histone H1 as substrate preincubated for 10 mins followed by substrate and ATP addition and measured after 60 mins by ADP-Glo reagent based microplate reader assay.
CDK7/Cyclin H/MNAT1, sequence (P51946 whole entry, the tested form may be a part): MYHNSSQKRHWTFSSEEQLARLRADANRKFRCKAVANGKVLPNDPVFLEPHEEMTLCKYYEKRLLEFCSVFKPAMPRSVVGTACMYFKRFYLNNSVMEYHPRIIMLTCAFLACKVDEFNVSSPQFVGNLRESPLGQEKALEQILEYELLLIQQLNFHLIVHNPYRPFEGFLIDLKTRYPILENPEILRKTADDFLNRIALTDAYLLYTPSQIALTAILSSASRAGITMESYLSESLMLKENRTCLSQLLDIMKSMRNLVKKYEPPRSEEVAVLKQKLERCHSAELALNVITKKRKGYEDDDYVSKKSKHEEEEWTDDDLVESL
CDK7/Cyclin H/MNAT1, sequence (P50613 whole entry, the tested form may be a part): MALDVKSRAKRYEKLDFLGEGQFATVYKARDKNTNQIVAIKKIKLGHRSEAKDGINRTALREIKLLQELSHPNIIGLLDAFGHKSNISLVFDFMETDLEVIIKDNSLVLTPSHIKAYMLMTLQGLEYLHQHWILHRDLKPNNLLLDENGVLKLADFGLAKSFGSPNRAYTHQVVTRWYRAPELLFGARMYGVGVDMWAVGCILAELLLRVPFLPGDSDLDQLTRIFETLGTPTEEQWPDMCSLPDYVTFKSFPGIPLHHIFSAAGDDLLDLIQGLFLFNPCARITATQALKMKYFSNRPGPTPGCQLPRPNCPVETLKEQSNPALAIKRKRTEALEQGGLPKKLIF
CDK7/Cyclin H/MNAT1, sequence (P51948 whole entry, further chain, the tested form may be a part): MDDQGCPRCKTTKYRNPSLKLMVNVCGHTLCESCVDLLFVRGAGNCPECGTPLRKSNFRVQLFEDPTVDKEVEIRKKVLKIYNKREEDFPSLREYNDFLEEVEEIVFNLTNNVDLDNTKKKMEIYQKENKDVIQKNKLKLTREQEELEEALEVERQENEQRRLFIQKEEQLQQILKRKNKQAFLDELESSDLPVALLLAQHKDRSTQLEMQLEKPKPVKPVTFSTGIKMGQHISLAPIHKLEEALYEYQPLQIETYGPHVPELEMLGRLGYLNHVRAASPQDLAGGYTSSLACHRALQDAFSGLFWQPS
A further data set concerns the target CDK9/cyclin T1 (Homo sapiens, UniProt P50750). Description: Inhibition of full-length recombinant N-terminal GST-tagged human CDK9 (1 to 372 residues)/His-tagged cyclinT1 (1 to 726 residues) expressed in baculovirus expression system using histone H1 as substrate preincubated for 10 mins followed by substrate and ATP addition and measured after 60 mins by ADP-Glo reagent based microplate reader assay.

A short description of data set [4]: Metabolic stability in human liver microsomes assessed as half life at 1 uM preincubated with compound for 10 mins followed by beta-NADPH addition measured upto 60 mins by LC-MS/MS analysis. Format: ADME, Microsome. The conditions noted are these: time < 70 min.
In data set [5] the test system is MKN-1. Description: Antiproliferative activity against human MKN-1 cells incubated for 5 days by CCK-8 assay. The conditions noted are these: MKN-1, 120 h. The format is functional, cell-based.
Data set [6] concerns MKN-1. In words: Induction of cell cycle arrest in human MKN-1 cells assessed as reduction in G2/M phase cells at 111.1 to 333.3 nM incubated for 24 hrs by PI staining based flow cytometry analysis. Format: functional. The conditions noted are these: dose 111.1-333.3 nM. On the technique in general: In flow cytometry, cells or beads pass a laser one at a time.
For data set [7], the target named is Cyclin-dependent kinase 2 (Homo sapiens) (UniProt P24941). In words: Inhibition of CDK2 in human MKN-1 cells assessed as reduction in Rb phosphorylation at Ser807/11 incubated for 24 hrs by Western blotting analysis. The format is cell-based. The conditions noted are these: dose 37-3000 nM.
A short description of data set [8]: Drug uptake in CD1 mouse plasma at 10 mg/kg, po measured upto 24 hrs by LC-MS/MS analysis. The format is ADME, organism-based. The conditions noted are these: in vivo.
Data set [9] can be described thus: Clearance in CD1 mouse plasma at 1 mg/kg, iv measured upto 24 hrs by LC-MS/MS analysis. The format is ADME, organism-based.
For data set [10], the target named is Cyclin-dependent kinase 2 (Homo sapiens) (UniProt P24941). In words: Inhibition of CDK2 in human MKN-1 cells assessed as reduction in Rb phosphorylation at Ser780 incubated for 24 hrs by Western blotting analysis. Format: cell-based. The conditions noted are these: dose 37-3000 nM.
Data set [11] concerns MKN-1. Description: Induction of cell cycle arrest in human MKN-1 cells assessed as accumulation of cells at G0/G1 phase at 111.1 to 333.3 nM incubated for 24 hrs by PI staining based flow cytometry analysis. The format is functional. The conditions noted are these: dose 111.1-333.3 nM.
Data set [12] addresses Cyclin-dependent kinase 1 (Homo sapiens) (UniProt P06493). In words: Inhibition of CDK1 (unknown origin) at 1 uM.
Data set [13] has as its target Cyclin-dependent kinase 7 (Homo sapiens) (UniProt P50613). In words: Inhibition of CDK7 (unknown origin) at 1 uM.
The species named for a further data set is Homo sapiens. In words: Inhibition of CDK1/cyclin A2 (unknown origin) at 100 nM by ADP-Glo assay.
Data set [14] deals with CDK12/Cyclin K (Homo sapiens) (UniProt O75909+Q9NYV4). Description: Inhibition of CDK12/Cyclin K (unknown origin) at 100 nM by HTRF assay. The format is protein-complex assay.
The target of data set [15] is Cyclin-dependent kinase 9 (Homo sapiens) (UniProt P50750). In words: Inhibition of CDK9 (unknown origin) at 1 uM.
Cyclin-dependent kinase 9 (Homo sapiens), sequence (P50750 whole entry): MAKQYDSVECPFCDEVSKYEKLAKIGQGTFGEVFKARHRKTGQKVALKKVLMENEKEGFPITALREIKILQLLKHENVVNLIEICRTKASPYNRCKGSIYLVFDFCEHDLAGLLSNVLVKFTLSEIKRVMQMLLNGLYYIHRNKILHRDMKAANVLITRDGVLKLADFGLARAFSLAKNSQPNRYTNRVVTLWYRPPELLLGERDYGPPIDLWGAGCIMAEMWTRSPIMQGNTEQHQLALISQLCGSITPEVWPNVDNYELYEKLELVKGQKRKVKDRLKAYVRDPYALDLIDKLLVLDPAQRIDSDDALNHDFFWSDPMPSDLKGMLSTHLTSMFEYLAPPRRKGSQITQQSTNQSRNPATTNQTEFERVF
Data set [16] has as its target Cyclin-dependent kinase 5 (Homo sapiens) (UniProt Q00535). Description: Inhibition of CDK5 (unknown origin) at 1 uM.
The target in data set [17] is Cyclin-dependent kinase 13 (Homo sapiens) (UniProt Q14004). In words: Inhibition of CDK13 (unknown origin) at 1 uM.
For data set [18], the target named is Cyclin-dependent kinase 12 (Homo sapiens) (UniProt Q9NYV4). Description: Inhibition of CDK12 (unknown origin) at 1 uM.
Cyclin-dependent kinase 12 (Homo sapiens), sequence (Q9NYV4 whole entry, looked up): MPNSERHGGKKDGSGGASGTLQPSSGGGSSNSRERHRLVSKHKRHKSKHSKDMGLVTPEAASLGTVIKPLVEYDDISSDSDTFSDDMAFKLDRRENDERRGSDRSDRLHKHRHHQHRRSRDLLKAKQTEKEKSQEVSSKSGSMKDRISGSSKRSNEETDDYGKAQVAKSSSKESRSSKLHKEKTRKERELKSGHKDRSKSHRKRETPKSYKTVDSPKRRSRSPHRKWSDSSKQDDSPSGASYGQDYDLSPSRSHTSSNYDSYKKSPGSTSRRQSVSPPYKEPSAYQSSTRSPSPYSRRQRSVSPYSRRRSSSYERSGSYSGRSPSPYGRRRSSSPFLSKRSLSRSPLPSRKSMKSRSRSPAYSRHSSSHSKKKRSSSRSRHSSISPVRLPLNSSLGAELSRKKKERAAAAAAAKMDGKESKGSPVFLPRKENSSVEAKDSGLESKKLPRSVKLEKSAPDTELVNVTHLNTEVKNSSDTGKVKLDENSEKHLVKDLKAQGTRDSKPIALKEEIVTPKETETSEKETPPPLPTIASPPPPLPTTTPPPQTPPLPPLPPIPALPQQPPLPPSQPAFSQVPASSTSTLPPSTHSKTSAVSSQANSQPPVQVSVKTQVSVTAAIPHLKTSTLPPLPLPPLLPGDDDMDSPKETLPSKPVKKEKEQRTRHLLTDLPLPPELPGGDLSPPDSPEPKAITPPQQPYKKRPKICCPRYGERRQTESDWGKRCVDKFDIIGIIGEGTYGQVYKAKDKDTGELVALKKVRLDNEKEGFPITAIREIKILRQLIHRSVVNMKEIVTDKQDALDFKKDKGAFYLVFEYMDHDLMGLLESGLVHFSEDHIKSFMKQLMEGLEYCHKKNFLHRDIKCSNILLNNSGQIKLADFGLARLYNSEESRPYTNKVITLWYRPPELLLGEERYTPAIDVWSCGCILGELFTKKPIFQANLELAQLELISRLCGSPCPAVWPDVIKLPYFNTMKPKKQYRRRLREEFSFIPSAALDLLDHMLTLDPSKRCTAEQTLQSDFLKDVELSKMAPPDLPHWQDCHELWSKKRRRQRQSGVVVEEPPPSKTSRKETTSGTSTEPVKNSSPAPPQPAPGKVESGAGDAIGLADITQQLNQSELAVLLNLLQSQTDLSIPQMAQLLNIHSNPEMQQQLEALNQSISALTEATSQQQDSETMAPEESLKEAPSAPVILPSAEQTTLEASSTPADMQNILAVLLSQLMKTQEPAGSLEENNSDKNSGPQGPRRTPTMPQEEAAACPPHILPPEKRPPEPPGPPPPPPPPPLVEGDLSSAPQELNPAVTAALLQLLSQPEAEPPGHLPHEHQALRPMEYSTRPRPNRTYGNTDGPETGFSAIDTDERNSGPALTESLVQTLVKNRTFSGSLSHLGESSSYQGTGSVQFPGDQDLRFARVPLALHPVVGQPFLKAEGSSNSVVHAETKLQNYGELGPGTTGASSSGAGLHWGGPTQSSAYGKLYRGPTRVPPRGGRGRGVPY

CDK9/cyclin T1, sequence (O60563 whole entry, the tested form may be a part): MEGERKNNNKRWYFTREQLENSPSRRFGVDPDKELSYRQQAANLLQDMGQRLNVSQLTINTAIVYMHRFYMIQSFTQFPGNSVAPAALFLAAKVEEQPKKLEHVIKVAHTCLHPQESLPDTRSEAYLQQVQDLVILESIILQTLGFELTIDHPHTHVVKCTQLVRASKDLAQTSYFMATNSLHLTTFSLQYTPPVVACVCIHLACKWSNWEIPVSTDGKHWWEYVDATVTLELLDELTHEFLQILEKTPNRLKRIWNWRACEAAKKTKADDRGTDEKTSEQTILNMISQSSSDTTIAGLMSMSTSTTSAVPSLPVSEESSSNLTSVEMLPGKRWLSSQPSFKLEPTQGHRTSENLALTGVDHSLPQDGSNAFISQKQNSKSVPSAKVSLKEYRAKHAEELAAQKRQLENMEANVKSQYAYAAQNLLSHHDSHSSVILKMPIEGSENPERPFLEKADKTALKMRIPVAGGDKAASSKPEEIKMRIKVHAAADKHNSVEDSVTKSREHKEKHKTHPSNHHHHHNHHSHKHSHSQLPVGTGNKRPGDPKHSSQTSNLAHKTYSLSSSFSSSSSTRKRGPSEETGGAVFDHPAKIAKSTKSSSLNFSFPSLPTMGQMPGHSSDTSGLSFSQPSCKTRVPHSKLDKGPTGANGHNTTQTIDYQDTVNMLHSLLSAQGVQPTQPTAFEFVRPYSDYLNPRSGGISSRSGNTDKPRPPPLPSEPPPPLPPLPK
CDK9/cyclin T1, sequence (P50750 whole entry, the tested form may be a part): as the sequence (P50750 whole entry) above
Cyclin-dependent kinase 1 (Homo sapiens), sequence (P06493 whole entry, looked up): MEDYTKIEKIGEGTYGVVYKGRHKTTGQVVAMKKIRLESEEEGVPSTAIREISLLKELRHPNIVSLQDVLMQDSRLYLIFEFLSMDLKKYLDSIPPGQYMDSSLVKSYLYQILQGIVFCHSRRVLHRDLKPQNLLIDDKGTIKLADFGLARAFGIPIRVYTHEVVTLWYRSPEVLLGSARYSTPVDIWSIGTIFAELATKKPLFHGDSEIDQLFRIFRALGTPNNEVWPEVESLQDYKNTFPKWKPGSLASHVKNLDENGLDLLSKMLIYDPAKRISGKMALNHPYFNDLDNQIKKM
Cyclin-dependent kinase 7 (Homo sapiens), sequence (P50613 whole entry): as the sequence (P50613 whole entry, the tested form may be a part) above
Cyclin-dependent kinase 5 (Homo sapiens), sequence (Q00535 whole entry, looked up): as the sequence (Q00535 whole entry) above

The term Ki denotes the equilibrium dissociation constant of an inhibitor or competing ligand from its target. Turning to `CC(C)c1cnn2c3nc(nc12)N(CC1CNC1)CCCCCOc1ccc(C(F)(F)F)cc1CN3`, the Ki in [1] was more than 1000 nM.

For orientation: half-life means the time in which the quantity being followed falls by half. By EC50 is commonly meant the concentration that produces a half-maximal response. Low values mean higher potency in that assay, high ones lower potency in that assay. For `CC(C)c1cnn2c3nc(nc12)N(CC1CNC1)CCCCCOc1ccccc1CN3`, the Ki is 30.7 nM in data set [2], 3 nM in data set [1], 101 nM on CDK7/Cyclin H/MNAT1 and 60 nM on CDK9/cyclin T1. Also, the half-life at 1 µM was determined as 61.9 min in data set [3] and 36.1 min in data set [4]. The midpoint of the response in the data set with MKN-1 [5], the EC50, lay at 3400 nM.

As for `CC(C)c1cnn2c3nc(nc12)N(CC1CCNCC1)CCCCCOc1cc(S(C)(=O)=O)ccc1CN3`, the Ki in data set [2] amounted to 2.4 nM; in data set [1], 4.9 nM; on CDK7/Cyclin H/MNAT1, 21.3 nM; on CDK9/cyclin T1, 2.7 nM.

Consider `CC(C)c1cnn2c3nc(nc12)N(CC1CCNC1)CCCCCOc1ccccc1CN3` (configuration not stated), for which the values for the Ki (in data set [2]; in data set [1]; on CDK7/Cyclin H/MNAT1) were 3.6 nM, 1 nM and 9.5 nM, respectively.

In turn, `CC(C)c1cnn2c3nc(nc12)N(CC1CCNCC1)CCCCCOc1ccc(C(F)(F)F)cc1CN3` displayed a Ki in data set [1] of 92.3 nM.

In the case of `CC(C)c1cnn2c3nc(nc12)N(CC1CCNCC1)CCCCCOc1cc(C#N)ccc1CN3`, the inhibition constant (Ki) in data set [2] turned out to be 4.4 nM; in [1], 9.4 nM; on CDK7/Cyclin H/MNAT1, 43.4 nM; at CDK9/cyclin T1 it was 5.8 nM.

In data set [1], `CC(C)c1cnn2c3nc(nc12)N(C1CNC1)CCCCCOc1ccccc1CN3` came in with a Ki of 158 nM.

Take `CC(C)c1cnn2c3nc(nc12)N(CC(C)(C)CN)CCCCCOc1ccccc1CN3`: the Ki in data set [2] was found to be 60.3 nM; in data set [1], 49.6 nM.

Regarding `CC(C)c1cnn2c3nc(nc12)N(CC1CCCNC1)CCCCCOc1ccccc1CN3` (configuration not stated), the results for the inhibitory constant (Ki) in data set [2] and in data set [1] were 140 nM and 46.1 nM, respectively.

As to `CC(C)c1cnn2c3nc(nc12)N(CC1CCNCC1)CCCCCOc1ccc(F)cc1CN3`, the Ki in [2] stood at 2.5 nM; in [1], 3.1 nM.

Regarding `CC(C)c1cnn2c3nc(nc12)N(CCC1CNC1)CCCCCOc1ccccc1CN3`, the values for the Ki in data set [2] and in data set [1] were 28.7 nM and 48.4 nM, respectively.

Broadly, the clearance is the volume of plasma or blood freed of the substance per unit of time. Read a high clearance as efficient removal. Consider `CC(C)n1cnc2c3nc(nc21)N(CC1CNC1)CCCCCOc1cc(S(C)(=O)=O)ccc1CN3`, for which the outcome in the data set on MKN-1 [6] and with MKN-1 [11] was Active. Also, the inhibition result in data set [7] and in [10] was “Dose-Dependent Effect” in each case. Moreover, the results for the half-life at 1 µM in data set [3] and in data set [4] were 6.3 min and 46.2 min, respectively. Further, the Ki in data set [1] was 3.6 nM. For the same compound, in data set [8], the Drug uptake result is “Not Active”. This compound also yielded a half-maximal effective concentration (EC50) in the data set on MKN-1 [5] of 740 nM. Moreover, the clearance in [9] was determined as 159 mL/min/kg.

With `CC(C)c1cnn2c3nc(nc12)N(CC1CNC1)CCCCCOc1cc(C(F)(F)F)ccc1CN3`, in data set [1], the Ki was found to be 15.4 nM.

The compound `CC(C)c1cnn2c3nc(nc12)N(CC1CNC1)CCCCCOc1ccc(C#N)cc1CN3` returned a Ki in data set [1] of more than 1000 nM.

Take `CC(C)c1cnn2c3nc(nc12)N(CC1CCOCC1)CCCCCOc1ccccc1CN3`: in [1], the Ki came out at 426 nM.

For `CC(C)c1cnn2c3nc(nc12)N(CC1CNC1)CCCCCOc1cc(F)c(F)cc1CN3`, the half-life at 1 µM in data set [3] is 22 min. Also, the Ki in data set [1] was determined as 3.4 nM. In the data set on MKN-1 [5], this compound gave an EC50 of 1460 nM.

Regarding `CC(C)c1cnn2c3nc(nc12)N(CC1CCNCC1)CCCCCOc1cc(C(F)(F)F)ccc1CN3`, the Ki was determined as 42.1 nM in [2], 15.1 nM in data set [1], 161 nM at CDK7/Cyclin H/MNAT1 and 43.3 nM on CDK9/cyclin T1.

In data set [1], `CC(C)c1cnn2c3nc(nc12)N(CC1CNC1)CCCCCOc1cc(C#N)ccc1CN3` displayed an inhibition constant Ki of 35.8 nM.

As to `CC(C)c1cnn2c3nc(nc12)N(CC1CCN(C)CC1)CCCCCOc1ccccc1CN3`, the Ki in data set [2] stood at 1 nM; in data set [1], 2.7 nM; on CDK7/Cyclin H/MNAT1, 60.2 nM; on CDK9/cyclin T1, 16.3 nM.

On to `CC(C)c1cnn2c3nc(nc12)N(CC1CNC1)CCCCCOc1ccc(F)cc1CN3`, for which the half-life at 1 µM in data set [3] is 15.2 min. In data set [1], this compound returned a Ki of 1 nM. This compound also gave an EC50 in the data set on MKN-1 [5] of 940 nM.

`CC(C)c1cnn2c3nc(nc12)N(CC1CCNCC1)CCCCCOc1ccc(S(C)(=O)=O)cc1CN3` yielded a Ki in [1] of 83.2 nM.

The compound `CC(C)c1cnn2c3nc(nc12)N(CCC1CNC1)CCCCCOc1cc(S(C)(=O)=O)ccc1CN3` returned a Ki in [1] of 35.3 nM.

For `CC(C)c1cnn2c3nc(nc12)N(CC1CNC1)CCCCCOc1cc(S(C)(=O)=O)ccc1CN3`, the outcome with MKN-1 [6] and in the data set with MKN-1 [11] was Active. In addition, the inhibition entry in [7] and in [10] was “Dose-Dependent Effect” each time. Also, the inhibition result (in data set [12]; in data set [13]; in the data set filed under Homo sapiens; in [14]; in [15]; in data set [16]) was “Active” each time. Moreover, the inhibition entry in [17] and in data set [18] was “Active” in each case. For the same compound, the half-life at 1 µM was determined as 112 min in data set [3] and 122 min in data set [4]. Also, the affinity in data set [1], expressed as Ki, was 1 nM. For the same compound, in data set [8], the Drug uptake entry is reported as “Not Active”. The midpoint of the response in the data set on MKN-1 [5], the EC50, lay at 310 nM. The clearance in [9] was 159 mL/min/kg.

Turning to `CC(C)c1cnn2c3nc(nc12)N(C[C@@H]1CNC[C@H]1O)CCCCCOc1ccccc1CN3`, the values for the Ki (in [2]; in data set [1]; on CDK7/Cyclin H/MNAT1) were 0.9 nM, 0.7 nM and 2.8 nM, respectively.

Turning to `CC(C)c1cnn2c3nc(nc12)N(CC1CCNCC1)CCCCCOc1cc(F)c(F)cc1CN3`, the values for the Ki in data set [2] and in data set [1] were 4.4 nM and 2.9 nM, respectively.
